{"source": "paper PMC9103244", "about": "“Novel Hybrid 1,2,4- and 1,2,3-Triazoles Targeting Mycobacterium Tuberculosis Enoyl Acyl Carrier Protein Reductase (InhA): Design, Synthesis, and Molecular Docking” (International Journal of Molecular Sciences, 2022)", "key": {"M. tuberculosis InhA": {"target": "T1, M. tuberculosis InhA (Mycobacterium tuberculosis, UniProt P9WGR1)", "T1 construct": "made in house; host or cells: E. coli", "T1 sequence (P9WGR1 whole entry, looked up)": "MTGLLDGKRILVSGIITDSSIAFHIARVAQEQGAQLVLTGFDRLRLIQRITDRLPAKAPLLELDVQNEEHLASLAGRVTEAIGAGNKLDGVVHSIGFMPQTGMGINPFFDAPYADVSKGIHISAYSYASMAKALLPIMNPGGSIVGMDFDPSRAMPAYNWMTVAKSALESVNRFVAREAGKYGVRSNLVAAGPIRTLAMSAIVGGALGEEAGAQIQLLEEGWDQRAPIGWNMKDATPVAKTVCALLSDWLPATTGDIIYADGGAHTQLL", "test": "InhA enzymatic inhibition assay (NADH oxidation at 340 nm)", "assay_type": "biochemical", "settings": "for inhibition at 0.01 µM: compound at 10 nM, read-out: InhA enzyme inhibition percentage at 10 nM"}, "[1]": {"target": "mycobacterium tuberculosis InhA enzyme", "set-up": "method as in doi:10.1016/j.molstruc.2020.129148", "settings": "literature lead structures; read-out: IC50 (InhA inhibitors, lead structures); cited from earlier work"}, "[2]": {"settings": "70 nM InhA, 2 h pre-incubation, pH 6.8, 25 °C, 35 μM trans-2-decenoyl-CoA, 200 μM NADH, read-out: IC50, inhibitory effect against InhA"}}, "note": "Like-named read-outs stand apart in the source and are kept apart here.", "data": [{"smiles": "Sc1nnc(Cc2ccccc2)n1/N=C/c1cccs1", "note": "[4a, 5.-benzyl-4-((thiophen-2-ylmethylene)amino)-2,4-dihydro-3H-1,2,4-triazole-3-thione]", "values": [{"measurement": "melting point", "result": "184 to 186", "unit": "°C"}, {"measurement": "IC50", "setting": "M. tuberculosis InhA; [2]", "result": 53.2, "unit": "nM"}]}, {"smiles": "Sc1nnc(Cc2ccccc2)n1/N=C/c1cccc2c1OCO2", "note": "[4b]", "values": [{"measurement": "melting point", "result": 164, "unit": "°C"}, {"measurement": "IC50", "setting": "M. tuberculosis InhA; [2]", "result": 9.16, "unit": "nM"}]}, {"smiles": "S=c1[nH]nc(Cc2ccccc2)n1/N=C/c1ccc(N2CCOCC2)cc1", "note": "[4c, (E)-5-benzyl-4-((4-morpholinobenzylidene)amino)-2,4-dihydro-3H-1,2,4-triazole-3-thione]", "values": [{"measurement": "IC50", "setting": "M. tuberculosis InhA; [2]", "result": 8.16, "unit": "nM"}]}, {"smiles": "C#CCSc1nnc(Cc2ccccc2)n1/N=C/c1cccs1", "note": "[5a, (E)-N-(3-benzyl-5-(prop-2-yn-1-ylthio)-4H-1,2,4-triazol-4-yl)-1-(thiophen-2-yl)methanimine]", "values": [{"measurement": "melting point", "result": 98, "unit": "°C"}, {"measurement": "IC50", "setting": "M. tuberculosis InhA; [2]", "result": 5.61, "unit": "nM"}]}, {"smiles": "C#CCSc1nnc(Cc2ccccc2)n1/N=C/c1cccc2c1OCO2", "note": "[5b, (E)-1-(benzo[d][1,3]dioxol-4-yl)-N-(3-benzyl-5-(prop-2-yn-1-ylthio)-4H-1,2,4-triazol-4-yl)methanimine]", "values": [{"measurement": "melting point", "result": 140, "unit": "°C"}, {"measurement": "IC50", "setting": "M. tuberculosis InhA; [2]", "result": 0.66, "unit": "nM"}, {"measurement": "inhibition at 0.01 µM", "setting": "M. tuberculosis InhA", "result": 100, "unit": "%"}]}, {"smiles": "C#CCSc1nnc(Cc2ccccc2)n1/N=C/c1ccc(N2CCOCC2)cc1", "note": "[5c]", "values": [{"measurement": "melting point", "result": 236, "unit": "°C"}, {"measurement": "IC50", "setting": "M. tuberculosis InhA; [2]", "result": 0.23, "unit": "nM"}, {"measurement": "inhibition at 0.01 µM", "setting": "M. tuberculosis InhA", "result": 100, "unit": "%"}]}, {"smiles": "O=C(O)c1ccc(-n2cc(CSc3nnc(Cc4ccccc4)n3/N=C/c3cccs3)nn2)cc1", "note": "[7a, (E)-4-(4-(((5-benzyl-4-((thiophen-2-ylmethylene)amino)-4H-1,2,4-triazol-3-yl)thio)methyl)-1H-1,2,3-triazol-1-yl)benzoic acid]", "values": [{"measurement": "melting point", "result": 196, "unit": "°C"}, {"measurement": "IC50", "setting": "M. tuberculosis InhA; [2]", "result": 6.18, "unit": "nM"}]}, {"smiles": "CC(=O)c1ccc(-n2cc(CSc3nnc(Cc4ccccc4)n3/N=C/c3cccs3)nn2)cc1", "note": "[7b]", "values": [{"measurement": "melting point", "result": 196, "unit": "°C"}, {"measurement": "IC50", "setting": "M. tuberculosis InhA", "result": 12.5, "unit": "nM"}]}, {"smiles": "O=C(O)c1ccc(-n2cc(CSc3nnc(Cc4ccccc4)n3/N=C/c3cccc4c3OCO4)nn2)cc1", "note": "[7c, (E)-4-(4-(((4-((benzo[d][1,3]dioxol-4-ylmethylene)amino)-5-benzyl-4H-1,2,4-triazol-3-yl)thio)methyl)-1H-1,2,3-triazol-1-yl)benzoic acid]", "values": [{"measurement": "melting point", "result": 188, "unit": "°C"}, {"measurement": "IC50", "setting": "M. tuberculosis InhA", "result": 0.074, "unit": "nM"}, {"measurement": "inhibition at 0.01 µM", "setting": "M. tuberculosis InhA", "result": 100, "unit": "%"}]}, {"smiles": "CC(=O)c1ccc(-n2cc(CSc3nnc(Cc4ccccc4)n3/N=C/c3cccc4c3OCO4)nn2)cc1", "note": "[7d]", "values": [{"measurement": "melting point", "result": 196, "unit": "°C"}, {"measurement": "inhibition at 0.01 µM", "setting": "M. tuberculosis InhA", "result": 100, "unit": "%"}, {"measurement": "IC50", "setting": "M. tuberculosis InhA; read-out: IC50, inhibitory effect against InhA, 70 nM InhA, 2 h pre-incubation, pH 6.8, 25 °C, 35 μM trans-2-decenoyl-CoA, 200 μM NADH", "result": 0.18, "unit": "nM"}]}, {"smiles": "O=C(O)c1ccc(-n2cc(CSc3nnc(Cc4ccccc4)n3/N=C/c3ccc(N4CCOCC4)cc3)nn2)cc1", "note": "[7e, (E)-4-(4-(((5-benzyl-4-((4-morpholinobenzylidene)amino)-4H-1,2,4-triazol-3-yl)thio)methyl)-1H-1,2,3-triazol-1-yl)benzoic acid]", "values": [{"measurement": "melting point", "result": 192, "unit": "°C"}, {"measurement": "IC50", "setting": "M. tuberculosis InhA", "result": 0.13, "unit": "nM"}, {"measurement": "inhibition at 0.01 µM", "setting": "M. tuberculosis InhA", "result": 100, "unit": "%"}]}, {"smiles": "CC(=O)c1ccc(-n2cc(CSc3nnc(Cc4ccccc4)n3/N=C/c3ccc(N4CCOCC4)cc3)nn2)cc1", "note": "[7f]", "values": [{"measurement": "melting point", "result": "198 to 200", "unit": "°C"}, {"measurement": "IC50", "setting": "M. tuberculosis InhA; [2]", "result": 0.25, "unit": "nM"}, {"measurement": "inhibition at 0.01 µM", "setting": "M. tuberculosis InhA", "result": 100, "unit": "%"}]}, {"smiles": "Cc1nc(C)n(CCCNc2ccc(C(=O)Nc3ccc(F)c(Oc4ccccc4)c3)cn2)n1", "note": "[Lead structure A]", "values": [{"measurement": "IC50", "setting": "[1]", "result": 906, "unit": "nM"}]}, {"smiles": "CNC(=O)CN(Cc1ccc(F)cc1)C(=O)C[C@H]1CC[C@@H](NC(=O)c2nnn(Cc3ccccc3)c2C)CC1", "note": "[Lead structure B]", "values": [{"measurement": "IC50", "setting": "[1]", "result": 57, "unit": "nM"}]}]}
